Reference: article PMC3663763, “The novel BH3 α-helix mimetic JY-1-106 induces apoptosis in a subset of cancer cells (lung cancer, colon cancer and mesothelioma) by disrupting Bcl-xL and Mcl-1 protein–protein interactions with Bak” (Molecular Cancer, 2013)

Experiments:
Bcl-xL = biological target: T1, Bcl-xL (Homo sapiens, UniProt Q07817); test: co-immunoprecipitation: displacement of Bak from endogenous Bcl-xL in REN cells at […]; assay type: cell-based
T1 construct: gene BCL2L1; endogenous Bcl-xL

Mcl-1 = biological target: T2, Mcl-1 (Homo sapiens, UniProt Q07820); test: fluorescence polarization competition with FITC-Bak-BH3 peptide, […] Mcl-1 (IC50 […]); supported by co-IP in REN cells; assay type: binding
T2 construct: gene MCL1
T2 sequence (Q07820 whole entry): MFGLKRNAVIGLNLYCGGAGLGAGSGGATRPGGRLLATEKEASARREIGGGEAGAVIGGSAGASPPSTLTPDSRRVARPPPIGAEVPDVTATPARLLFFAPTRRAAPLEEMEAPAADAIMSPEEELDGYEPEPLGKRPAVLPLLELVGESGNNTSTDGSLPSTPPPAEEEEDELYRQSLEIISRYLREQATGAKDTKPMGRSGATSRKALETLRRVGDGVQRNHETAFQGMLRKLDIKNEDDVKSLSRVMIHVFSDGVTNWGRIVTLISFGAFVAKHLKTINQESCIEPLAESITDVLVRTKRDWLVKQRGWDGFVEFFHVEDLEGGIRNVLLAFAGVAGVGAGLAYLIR

T1 sequence (Q07817 whole entry): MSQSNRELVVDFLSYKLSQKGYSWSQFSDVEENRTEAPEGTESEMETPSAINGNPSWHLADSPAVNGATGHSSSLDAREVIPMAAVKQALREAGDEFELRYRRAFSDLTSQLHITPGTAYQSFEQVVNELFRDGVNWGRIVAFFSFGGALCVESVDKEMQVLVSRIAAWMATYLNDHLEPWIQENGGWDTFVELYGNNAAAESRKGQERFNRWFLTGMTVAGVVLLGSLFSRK
T1 sequence (Q16611 2-211 partner): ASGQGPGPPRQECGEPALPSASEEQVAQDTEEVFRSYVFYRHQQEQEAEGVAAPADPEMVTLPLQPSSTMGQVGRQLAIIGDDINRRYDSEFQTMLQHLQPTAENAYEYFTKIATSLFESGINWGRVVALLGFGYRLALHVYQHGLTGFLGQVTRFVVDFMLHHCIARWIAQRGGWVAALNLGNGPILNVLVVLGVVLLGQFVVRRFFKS

- Ki (Mcl-1): 1.79 ± 0.15 µM
SMILES: CC(C)Oc1cc(C(=O)Nc2ccc(C(=O)Nc3ccc(C(=O)O)cc3OC(C)C)nc2OC(C)C)ccc1N [JY-1-106]
- co-immunoprecipitation: displacement of Bak from endogenous Bcl-xL in REN cells (Bcl-xL): JY-1-106 as well as ABT-737 can effectively displace Bak from its inhibitory binding with Bcl-xL
